Data as given in US7060733B2, “Methods for treating pancreatitis with curcumin compounds and inhibitors of reactive oxygen species” (The Regents of the University of California, priority 2002, dated 2006).
“Also recorded” adds a separate entry of the source.

What was measured:
[1] = tested on: rats with cerulein pancreatitis or ethanol/CCK pancreatitis; assay: Serum amylase and lipase in cerulein and ethanol/CCK pancreatitis models; type: in vivo; conditions: rat; for inhibition of the increase in serum amylase and lipase: curcumin 35 mg/kg/h i.v. for 6 h
Experimental: 5 μg/kg/h of Cerulein (American Peptide Co., Sunnyvale, Calif.) or vehicle control was administered to male Sprague-Dawley rats (275-350 g; Harlan, Madison, Wis.) by continuous 6-hour intravenous infusion by conventional methods known in the art. See Gukovskaya A S, et al. (1997) J. Clin. Invest. 100:1853-1862; Gukovsky I, et al. (1998) Am. J. Physiol. 275:[…]-[…]; and Zaninovic V, et al. (2000) Am. J. Physiol. 279:[…]-[…], which are herein incorporated by reference. Animals were euthanized by CO2-induced asphyxiation, and blood and the pancreas were harvested for measurements. Curcumin (Sigma Chemical, St. Louis, Mo.) was dissolved in dimethyl sulfoxide (DMSO) and administered to each animal by i.v. infusion together with cerulein at a dose of 35 mg/kg/h. Thus, during the 6-hour treatment, each animal received a total of 200 mg/kg (0.5 mmol/kg) of curcumin. Serum amylase and lipase were measured under contract using a Hitachi 707 analyzer (Antech Diagnostics, Irvine Calif.) and methods known in the art. […] Thus, curcumin inhibits […] pancreatitis. An ethanol/CCK-induced pancreatitis model as previously described was used. See Pandol S J, et al. (1999). Specifically, Sprague-Dawley rats (400-500 g; Harlan, Madison, Wis.) were given an intragastric infusion of ethanol-containing or control diet for 6 weeks followed by 6-hour infusion of a low dose (3000 pmol/kg/h) CCK-8 (Peninsula Laboratories, Belmont, Calif.). […] CCK-8 causes pancreatitis in both rats and mice by stimulating the activation of the inflammatory signals, i.e. NF-κB and AP-1, in the pancreatic acinar cell. Animals were euthanized by CO2-induced asphyxiation, and blood and the pancreas were harvested for measurements. Curcumin (Sigma Chemical, St. Louis, Mo.) was dissolved in dimethyl sulfoxide (DMSO) and administered to each animal by i.v. infusion together with CCK-8 at a dose of 35 mg/kg/h. Thus, during the 6-hour treatment, each animal received a total of 200 mg/kg (c. 0.5 mmol/kg) of curcumin. Serum amylase and lipase were measured under contract using a Hitachi 707 analyzer (Antech Diagnostics, Irvine Calif.) and methods known in the art. […] Thus, curcumin inhibits […] pancreatitis.

IκBα and IκBβ = assay: Western blot of IκBα and IκBβ in cytosolic extracts from pancreatic tissue; type: in vivo, rat
Experimental: IκBα and IκBβ levels were measured in cytosolic protein extracts from pancreatic tissue, prepared according to Example 12, by Western blot analysis using polyclonal antibodies sc-371 and sc-945, respectively (Santa Cruz Biotechnology, Santa Cruz, Calif.) using methods known in the art. […] Specifically, IκBα and IκBβ levels were measured in cytosolic protein extracts from pancreatic tissue by Western blot analysis using polyclonal antibodies sc-371 and sc-945, respectively (Santa Cruz Biotechnology, Santa Cruz, Calif.). […] Specifically, proteins in the cytosolic extract were separated by SDS-PAGE at 120 V using precast Tris-glycine gels and Mini-Cell gel apparatus (Novex, San Diego, Calif.). Separated proteins were electrophoretically transferred to polyvinylidene difluoride membrane for 2 hours at 30 V, using a Novex blot module. Nonspecific binding was blocked by overnight incubation of the membrane in 5% (wt/vol) nonfat dry milk in Tris-buffered saline (TBS, pH 7.5). Blots were then incubated for 2 hours at room temperature with primary antibodies in antibody buffer containing 1% (wt/vol) nonfat dry milk in TTBS (0.05% vol/vol Tween 20 in TBS), washed three times with TTBS, and finally incubated for 1 hour with a peroxidase-labeled secondary antibody in the antibody buffer. Blots were developed for visualization using enhanced chemiluminescence detection kit (Pierce Chemical, Rockford, Ill.).

trypsin = assay: Trypsin activation assay in pancreatic tissue homogenates; type: in vivo, rat; conditions: for inhibition of intrapancreatic trypsin activation / active trypsin versus pancreatitis without curcumin: rat
Experimental: Pancreatic tissue homogenates were prepared by methods known in the art. See Gukovskaya A S, et al. (2002); Gukovsky I, et al. (1998); Sandoval D, et al. (1996) Gastroenterology 111:1081–1091; and Vaquero E, et al. (2001), which are herein incorporated by reference. Active trypsin was measured in the pancreatic tissue homogenates by using a specific substrate, Boc-GLn-Ala-Arg-A MC (Bachem, Torrance, Calif.). See Kawabata S. et al. (1988) Eur. J. Biochem. 172:17–25, which is herein incorporated by reference. Cleavage of the substrate by trypsin releases 7-amino-4-methylcoumarin (AMC), which emits fluorescence at 440 nm with excitation at 380 nm. Trypsin activity in each sample was determined using a standard curve for purified trypsin.
Specifically, about ⅓ of rat pancreas was homogenized in 2 ml ice-cold buffer A (5 mM MES, pH 6.5; 1 mM MgSO4, 250 mM sucrose). Then 2 ml of buffer B (50 mM Tris, pH 8.0; 150 mM NaCl, 1 mM CaCl2, 0.1 mg/ml BSA) was mixed with 25 μl of the homogenate and kept on ice. Then 2 μl of 20 mM substrate solution (20 mM Boc-Gln-Ala-Arg-AMC.HCl in DMSO) was added to start the reaction. The sample was mixed well and incubated at 37° C. The reaction product was measured with a spectrofluorimeter for 20 minutes at ex=380 nm; em=440 nm.

pancreatic acinar cells = assay: LDH release from pancreatic acinar cells; type: cell-based, rat; conditions: 100 μM curcumin, control acinar cells or cells stimulated with 100 nM CCK-8
[2] = tested on: neutrophil infiltration of pancreatic tissue; assay: Neutrophil infiltration assay of pancreatic tissue; type: in vivo; conditions: rat
Experimental: Neutrophil infiltration of pancreatic tissue was examined using methods known in the art. See Gukovskaya A S, et al. (1997); Gukovskaya A S, et al. (2002); Pandol S J, et al. (1999); Sandoval D, et al. (1996); and Vaquero E, et al. (2001). The pancreas was cut into about 2 to about 3 mm pieces and fixed in 4% paraformaldehyde for 2 hours. The tissue was then frozen in liquid nitrogen. 8-μm-thick serial cryostat sections of pancreatic tissue from control samples and test samples from Examples 1 and 2 were cut and mounted on glass slides. The slides were placed in phosphate buffered saline (PBS) for 5 minutes. This was repeated twice. Then the slides were transferred into blocking buffer (PBS containing 5% (wt/vol) goat serum, 0.5% bovine serum albumin (wt/vol) and 0.1% gelatin(wt/vol) for 1 hour at room temperature. Then the slides incubated with FITC-conjugated rabbit anti-rat neutrophil antibody (Accurate, Westbury, N.Y.) (diluted 1:120 in the blocking buffer) for 3 hours at room temperature. The slides were the transferred into the blocking buffer, incubated for 5 minutes, and repeated 4 times. Finally, coverslips were mounted over the tissue samples on the slide with the addition of anti-fading medium. The number of infiltrating neutrophils was obtained by counting the neutrophils at 40× magnification in an average of 50 fields covering at least about 1,000 acinar cells. For each sample, neutrophil numbers were expressed as a percentage of acinar cells.

[3] = Solubility of curcumin compounds; type: physicochemical; conditions: dissolved in DMSO, veins of the rat

COc1cc(/C=C/C(=O)CC(=O)/C=C/c2ccc(O)c(OC)c2)ccc1O [curcumin]
inhibition of the increase in serum amylase and lipase ([1]; cerulein pancreatitis): approximately 50% | serum amylase versus pancreatitis without curcumin ([1]; cerulein pancreatitis, p<0.05): significantly inhibited; also recorded: significantly lower | serum lipase versus pancreatitis without curcumin ([1]; cerulein pancreatitis, p<0.05): significantly inhibited; also recorded: significantly lower | inhibition of the increase in serum amylase and lipase ([1]; ethanol/CCK pancreatitis): approximately 50% | serum amylase and lipase versus pancreatitis without curcumin ([1]; ethanol/CCK pancreatitis, p<0.05): significantly inhibited; also recorded: significantly lower | decrease (degradation) of IκBα and IκBβ (IκBα and IκBβ; cerulein pancreatitis, rat): prevented | IκBα and IκBβ levels in control animals (IκBα and IκBβ; control animals): did not change | IκB degradation (IκBα and IκBβ; ethanol/CCK pancreatitis, rat): prevented; also recorded: inhibits | inhibition of intrapancreatic trypsin activation (trypsin; EtOH+CCK model): greater than 50% | inhibition of intrapancreatic trypsin activation (trypsin; cerulein model): greater than 70% | active trypsin versus pancreatitis without curcumin (trypsin; cerulein pancreatitis): significantly lower; also recorded: significantly inhibited | basal level of active pancreatic trypsin (trypsin; ethanol-fed rats, EtOH+CCK model, basal): unaffected | active trypsin versus pancreatitis without curcumin (trypsin; ethanol/CCK pancreatitis): significantly lower; also recorded: significantly inhibited | LDH release (pancreatic acinar cells): did not cause additional LDH release | inhibition of neutrophil infiltration in the pancreas ([2]; cerulein pancreatitis): greater than 50% | neutrophil infiltration versus pancreatitis without curcumin ([2]; cerulein pancreatitis): significantly lower; also recorded: significantly inhibited | inhibition of neutrophil infiltration in the pancreas ([2]; ethanol/CCK pancreatitis): greater than 50% | neutrophil infiltration versus pancreatitis without curcumin ([2]; ethanol/CCK pancreatitis): significantly lower; also recorded: significantly inhibited | behaviour of DMSO solution diluted in saline on intravenous infusion [3]: precipitated
